Patent US11076595B2, “1-(n,n-disubstituted carbamoyl) 4-(substituted sulfonyl)triazolin-5-one derivative, 4-(n,n-disubstituted carbamoyl) 1-(substituted sulfonyl)triazolin-5-one derivative, and herbicide containing said derivative as active ingredient” (HOKKO CHEMICAL INDUSTRY CO., LTD., priority 2017, dated 2021)

How the values were obtained:
Assay type in all cases: in vivo
[1] = system: Amaranthus viridis; experiment: Test Example 14: herbicidal effect test by foliage treatment in upland field; settings: 7 days after sowing, 120 g/10a, 14 days after treatment
Method: (§1) This test was performed with two replications per one formulation concentration plot, and 14 days after the formulation treatments, the weed suppression rate (%) was determined according to the following equation (Math. 2). Weed suppression rate (%)=(1−average dry weight (g) of plants in treated plots/average dry weight (g) of plants in untreated plots)×100 [Math. 2]
(§2) A pot having a size of 36 cm^2 was filled with field soil (alluvial soil) and after uniformly mixing the soil of the surface layer of 1 cm with 20 grains of each weed seed of crabgrass, Echinochloa crus-galli, Chenopodium album and Amaranthus viridis, the surface layer was pressed lightly. Seven Days after the sowing, an emulsifiable concentrate prepared according to Formulation Example 15 by using the compound shown in Table 12 below was diluted with water, and the water-diluted formulation was sprayed on the soil surface at a ratio of 100 liter per 10 are. The application rate of the active ingredient, by conversion, corresponded to 120 g per 10 are. Fourteen Days after the formulation treatment, the herbicidal effect was evaluated by the same criteria as in Test Example 11.

[2] = system: Echinochloa crus-galli; experiment: as above; settings: 7 days after sowing, 120 g/10a, 14 days after treatment
Method: as §1, §2

[3] = system: Lindernia pyxidaria; experiment: Test Example 12: herbicidal effect test by treatment during growing period in paddy field; settings: 120 g/10a; treatment seven days after sowing in flooded paddy pot; assessed 14 days after treatment
Procedure, shortened: (§3)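 Seeds (30 per species) are sown shallowly into fertilized, puddled paddy soil kept under ~3 cm of water in a greenhouse. One week later, compound formulated as an emulsifiable concentrate is applied dropwise to the water at 120 g a.i./10 are. After 14 days, dry weights give percent suppression against untreated controls.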

[4] = system: Scirpus juncoides; experiment: as above; settings: 120 g/10a; treatment seven days after sowing in flooded paddy pot; assessed 14 days after treatment
Procedure, shortened: as §3

[5] = system: Monochoria vaginalis; experiment: as above; settings: 120 g/10a; treatment seven days after sowing in flooded paddy pot; assessed 14 days after treatment
Procedure, shortened: as §3

[6] = system: Echinochloa crus-galli; experiment: as above; settings: 120 g/10a; treatment seven days after sowing in flooded paddy pot; assessed 14 days after treatment
Procedure, shortened: as §3

[7] = system: Chenopodium album; experiment: Test Example 14: herbicidal effect test by foliage treatment in upland field; settings: 7 days after sowing, 120 g/10a, 14 days after treatment
Method: as §2

[8] = system: crabgrass; experiment: as above; settings: 7 days after sowing, 120 g/10a, 14 days after treatment
Method: as §2

[9] = system: Lindernia pyxidaria; experiment: Test Example 11: herbicidal effect test by soil treatment in paddy field; settings: 120 g/10a active ingredient, 14 days after treatment
Procedure, shortened: (§4)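 Pre-emergence flooded-paddy test: the water-diluted emulsifiable concentrate, 120 g active ingredient per 10 are, was dripped into pots immediately after seeding, with water held at about 3 cm. Two replicate pots per rate; 14 days after treatment, plant dry weight versus untreated pots gave the weed suppression rate.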

[10] = system: Scirpus juncoides; experiment: as above; settings: 120 g/10a active ingredient, 14 days after treatment
Procedure, shortened: as §4

[11] = system: Monochoria vaginalis; experiment: as above; settings: 120 g/10a active ingredient, 14 days after treatment
Procedure, shortened: as §4

[12] = system: Echinochloa crus-galli; experiment: as above; settings: 120 g/10a active ingredient, 14 days after treatment
Procedure, shortened: as §4

SMILES | herbicidal effect, Amaranthus viridis [1] | herbicidal effect, Echinochloa crus-galli [2] | Weed suppression rate (%) Lindemia pyxidaria [3] | Weed suppression rate (%) Scirpus juncoides [4] | Weed suppression rate (%) Monochoria vaginalis [5] | Weed suppression rate (%) Echinochloa crus-galli [6] | herbicidal effect, Chenopodium album [7] | herbicidal effect, Crabgrass [8] | Weed suppression rate (%) Lindemia pyxidaria [9] | Weed suppression rate (%) Scirpus juncoides [10] | Weed suppression rate (%) Monochoria vaginalis [11] | Weed suppression rate (%) Echinochloa crus-galli [12]
CC(C)N(C(=O)n1cnn(S(=O)(=O)C(C)C)c1=O)c1ccc(Cl)cc1F [Compound 11-67] | 60% | 90% | 90% | 90% | 90% | 100% | 60% | 90% | 90% | 90% | 90% | 100%
CC(C)N(C(=O)n1cnn(S(=O)(=O)c2cccs2)c1=O)c1ccccc1 [Compound 11-1011] | 90% | 80% | 80% | 90% | 80% | 90% | 80% | 90% | 80% | 90% | 80% | 90%
CC(C)N(C(=O)n1cnn(S(=O)(=O)C(C)C)c1=O)c1ccc(Cl)cc1Br [Compound 11-71] | 60% | 100% | 70% | 100% | 70% | 100% | 70% | 100% | 90% | 100% | 70% | 100%
CC(C)N(C(=O)n1cnn(S(=O)(=O)C2CC2)c1=O)c1ccc(F)cc1Cl [Compound 11-205] | 70% | 100% | 80% | 100% | 100% | 100% | 70% | 100% | 100% | 100% | 90% | 100%
CC(C)N(C(=O)n1cnn(S(=O)(=O)C(C)C)c1=O)c1ccc(C(F)(F)F)cc1F [Compound 11-76] | 80% | 100% | 60% | 60% | 80% | 100% | 60% | 100% | 80% | 60% | 100% | 100%
CC(C)N(C(=O)n1cnn(S(=O)(=O)C(C)C)c1=O)c1ccccc1F [Compound 11-49] | 90% | 80% | 90% | 90% | 90% | 100% | 80% | 90% | 80% | 90% | 80% | 90%
Cc1ccc(S(=O)(=O)n2ncn(C(=O)N(c3ccc(Cl)cn3)C(C)C)c2=O)cc1 [Compound 11-661] | 0% | 90% | 100% | 90% | 100% | 100% | 0% | 70% | 100% | 90% | 80% | 100%
CC(C)N(Cc1ccc(F)cc1F)C(=O)n1cnn(S(=O)(=O)c2cccs2)c1=O [Compound 11-1046] | 60% | 0% | 90% | 90% | 90% | 100% | 40% | 100% | 80% | 80% | 60% | 100%
CC(C)N(C(=O)n1cnn(S(=O)(=O)c2cccs2)c1=O)c1ccc(Br)cc1Cl [Compound 11-1033] | 60% | 90% | 100% | 100% | 100% | 100% | 60% | 90% | 100% | 100% | 90% | 100%
CC(C)N(C(=O)n1cnn(S(=O)(=O)c2cccs2)c1=O)c1c(F)cc(F)cc1F [Compound 11-1026] | 30% | 90% | 80% | 100% | 100% | 100% | 70% | 90% | 100% | 100% | 100% | 100%
CC(C)N(C(=O)n1cnn(S(=O)(=O)C2CCCCC2)c1=O)c1cccc(F)c1 [Compound 11-285] | 90% | 80% | 80% | 90% | 80% | 90% | 80% | 90% | 80% | 90% | 80% | 90%
CC(C)N(C(=O)n1cnn(S(=O)(=O)C2CC2)c1=O)c1ccc(Br)cc1Cl [Compound 11-209] | 30% | 90% | 80% | 100% | 90% | 100% | 60% | 90% | 100% | 100% | 90% | 100%
Cc1cc(Cl)ccc1N(C(=O)n1cnn(S(=O)(=O)C(C)C)c1=O)C(C)C [Compound 11-74] | 90% | 80% | 80% | 90% | 80% | 90% | 80% | 90% | 80% | 90% | 80% | 90%
